# From PMC10321576, “Cyclic peptides target the aromatic cage of a PHD-finger reader domain to modulate epigenetic protein function” (Chemical Science, 2023)
# Peptide text beside a SMILES is read from it.
# Columns and labels:
# KDM7B dual domain [1] = molecular target: T1, KDM7B dual domain (Homo sapiens, UniProt Q9UPP1); assay: HDX-MS; assay type: binding; settings: relative to DMSO
# T1 construct: dual domain (PHD-JmjC) of KDM7B; His-tag (C); made in house
# Source text: (§1) To further evaluate the interactions of OC9 with KDM7B we used hydrogen–deuterium exchange mass spectrometry (HDX-MS), which informs on protein dynamics by following deuterium incorporation into the protein amide backbone (Fig. 2).
# (§2) The residue level view was generated by averaging mass changes across overlapping peptide fragments. Supporting data available in ESI. ^† K4me3 binding aromatic cage residues (‘YYMW’ Fig. 1a) are indicated by red asterix.
# KDM7B PHD-finger = molecular target: T2, KDM7B PHD-finger (Homo sapiens, UniProt Q9UPP1); assay: HDX-MS; assay type: binding; settings: 60 minute time-course, relative to DMSO
# T2 construct: KDM7B 1-66; His-tag (C); made in house
# T2 sequence (Q9UPP1 1-66 isoform Q9UPP1-2): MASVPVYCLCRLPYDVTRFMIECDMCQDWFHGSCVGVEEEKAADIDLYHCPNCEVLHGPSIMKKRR
# Source text: as §1, §2
# KDM7B dual domain [2] = molecular target: T1, KDM7B dual domain; assay: AlphaScreen demethylation assay; assay type: biochemical
# Source text: We tested the effect of OC9 on KDM7B demethylation of H3_1–21K4me3K9me2 and the less-efficient H3_1–21K9me2 substrate by MALDI-TOF MS based assay.[14,19] […] Inhibition by OC9 was further confirmed by an orthogonal AS activity assay[58] (Fig. S41 ^†). […] As KDM7B aromatic cage mutation results in the same phenotypic outcome as JmjC catalytic site inactivation (e.g. KDM7B demethylase-dependent melanoma metastasis[20]), our results emphasise the crucial role of PHD-fingers in regulating KDM7 demethylase activity and the need to explore PHD-finger viability as therapeutic targets.
# KDM7A PHD = molecular target: T3, KDM7A PHD (Homo sapiens, UniProt Q6ZMT4); assay: ITC binding
# T3 construct: KDM7A 38-98; made in house
# T3 sequence (Q6ZMT4 38-98): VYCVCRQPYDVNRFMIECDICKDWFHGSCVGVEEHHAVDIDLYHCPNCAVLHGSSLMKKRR
# Method: (§3) Figure S10. ITC results: Tabulated values from 1:1 binding model and conditions
# (§4) ITC buffer = 50 mM HEPES, 100 mM NaCl, pH 7.4, 0.2 µm filtered), at 25 °C. Dual = PHD+JmjC. HisTrx
# (§5) = His 6+thioredoxin tag, GST = glutathione S -transferase tag, ZB = Z -basic tag. Syringe contained
# (§6) peptide solution in buffer. Cell contained protein solution in buffer.
# (§7) (1 picture or pasted object on this page, not shown here)
# HisTrx-DIDO PHD = molecular target: T4, HisTrx-DIDO PHD (Homo sapiens, UniProt Q9BTC0); assay: ITC binding; settings: 50 mM HEPES, 100 mM NaCl, pH 7.4, 25 °C; 1:1 binding model
# T4 construct: HisTrx-DIDO PHD
# Method: as §3, §4, §5, §6, §7
# KDM7A Dual = KDM7A Dual (Homo sapiens, UniProt Q6ZMT4); assay: ITC binding
# KDM7A Dual, sequence (Q6ZMT4 38-386 limits assumed): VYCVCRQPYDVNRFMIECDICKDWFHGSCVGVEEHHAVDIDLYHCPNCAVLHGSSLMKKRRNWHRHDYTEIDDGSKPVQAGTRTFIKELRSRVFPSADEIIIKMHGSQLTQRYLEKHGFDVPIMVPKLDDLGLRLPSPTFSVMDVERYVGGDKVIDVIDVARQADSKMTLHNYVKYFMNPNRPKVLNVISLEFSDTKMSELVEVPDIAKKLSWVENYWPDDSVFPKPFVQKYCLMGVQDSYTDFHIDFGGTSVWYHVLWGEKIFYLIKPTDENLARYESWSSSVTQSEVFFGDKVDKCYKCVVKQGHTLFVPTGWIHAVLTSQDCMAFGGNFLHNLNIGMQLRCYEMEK
# Method: as §3, §4, §5, §6, §7
# ING2 PHD = molecular target: T5, ING2 PHD (Homo sapiens, UniProt Q9H160); assay: BLI binding; settings: 1:1 binding model
# T5 construct: ING2 PHD
# T5 sequence (Q9H160 212-261 limits assumed): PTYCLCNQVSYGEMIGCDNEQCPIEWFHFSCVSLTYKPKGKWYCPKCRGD
# Source text: (§8) against KDM7 and other protein domains. t1/2 = half life (0.693 / Koff)
# as §7
# TAF3 PHD = molecular target: T6, TAF3 PHD (Homo sapiens, UniProt Q5VWG9); assay: BLI binding; settings: 1:1 binding model
# T6 construct: TAF3 PHD
# T6 sequence (Q5VWG9 865-915 limits assumed): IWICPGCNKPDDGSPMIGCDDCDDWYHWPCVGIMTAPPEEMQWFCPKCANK
# Source text: as §8, §7
# DIDO PHD = molecular target: T7, DIDO PHD (Homo sapiens, UniProt Q9BTC0); assay: BLI binding; settings: 1:1 binding model
# T7 construct: DIDO PHD
# T7 sequence (Q9BTC0 268-322 limits assumed): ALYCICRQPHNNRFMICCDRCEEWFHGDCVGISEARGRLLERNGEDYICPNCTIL
# Source text: as §8, §7
# SPIN1 TTD = SPIN1 TTD (Homo sapiens, UniProt Q9Y657); assay: BLI binding; settings: 1:1 binding model
# SPIN1 TTD, sequence (Q9Y657 53-262 limits assumed): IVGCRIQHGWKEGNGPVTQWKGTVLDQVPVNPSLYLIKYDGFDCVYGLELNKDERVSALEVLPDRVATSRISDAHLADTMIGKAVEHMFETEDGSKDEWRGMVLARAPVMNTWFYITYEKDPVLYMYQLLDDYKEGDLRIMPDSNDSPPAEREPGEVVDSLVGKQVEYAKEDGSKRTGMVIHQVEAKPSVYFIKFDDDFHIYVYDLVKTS
# Source text: as §8, §7
# full-length KDM7B = assay: Pull-down from transfected HEK293T nuclear lysates; assay type: binding; settings: 100-fold excess competitor
# Method: HEK293T cells were transiently transfected with either a full-length wild-type KDM7B, or an aromatic cage inactivating mutant KDM7B (Y14A, W29A).[20]
# Capture was performed with 1 μM probe incubated in pre-cleared lysate, recovered with streptavidin-conjugated magnetic beads, then washed and eluted by heating in denaturing solution. 100-fold excess OC9 or OC9 V10A were used as competitors. […] The upper left quadrant indicates >5-fold difference in recovered protein (based on T-test difference of mean log 2 (LFQ) values) and p-value threshold <0.05.
# [3] = system: SUP-T1 nuclear lysate proteins; assay: Pull-down and proteomics from SUP-T1 nuclear lysate; assay type: binding; settings: 1 μM OC9-Bt, 454 proteins identified
# Method: Fig. 6 Selective capture of full-length KDM7 with OC9-Bt in nuclear lysates. (a) OC9-Bt, H3K4me3-Bt and Bt were used as affinity probes in HEK293T nuclear lysates, transiently transfected with wild type KDM7B, or PHD-finger mutant (Y14A, W29A). Capture was performed with 1 μM probe incubated in pre-cleared lysate, recovered with streptavidin-conjugated magnetic beads, then washed and eluted by heating in denaturing solution. 100-fold excess OC9 or OC9 V10A were used as competitors. […] (Left) Change in all protein (454) recoveries with competition by titration of unlabelled OC9. (Right) Volcano plot comparing relative abundance of pull-down content at 0 and 20 μM competition. The upper left quadrant indicates >5-fold difference in recovered protein (based on T-test difference of mean log 2 (LFQ) values) and p-value threshold <0.05.
# A further chemoproteomic profiling analysis of endogenous protein capture by OC9-Bt from KDM7B-expressing T-cell lymphoblastic lymphoma SUP-T1 nuclear lysates[67] identified 454 proteins.
# KDM7B PHD = molecular target: T8, KDM7B PHD (Homo sapiens, UniProt Q9UPP1); assay: BLI binding; parameters: key to BLI Screening, KDM7B PHD: (+) = binding; (-) = no binding; (NS) = non-specific
# T8 construct: KDM7B 1-66; made in house
# T8 sequence (Q9UPP1 1-66 isoform Q9UPP1-2): T2 sequence (Q9UPP1 1-66 isoform Q9UPP1-2)
# Source text: Figure S2. BLI for KDM7 proteins with cyclic peptides.
# BLI traces for b inding to KDM7 protein domains immobilised by C-terminal His -tag on Ni -NTA
# biosensors, against cyclic peptides. Response trace for each peptide concentration is represented by
# a different colour, with the fitted curves overlaid in black.
# concentration plotted, with 2-fold dilutions thereafter. Dual domain = PHD+JmjC. […]
# as §8, §7
# [4] = 50 mM HEPES, 100 mM NaCl, pH 7.4, 25 °C, 1:1 binding model
# T1 sequence (Q9UPP1 37-483 limits assumed): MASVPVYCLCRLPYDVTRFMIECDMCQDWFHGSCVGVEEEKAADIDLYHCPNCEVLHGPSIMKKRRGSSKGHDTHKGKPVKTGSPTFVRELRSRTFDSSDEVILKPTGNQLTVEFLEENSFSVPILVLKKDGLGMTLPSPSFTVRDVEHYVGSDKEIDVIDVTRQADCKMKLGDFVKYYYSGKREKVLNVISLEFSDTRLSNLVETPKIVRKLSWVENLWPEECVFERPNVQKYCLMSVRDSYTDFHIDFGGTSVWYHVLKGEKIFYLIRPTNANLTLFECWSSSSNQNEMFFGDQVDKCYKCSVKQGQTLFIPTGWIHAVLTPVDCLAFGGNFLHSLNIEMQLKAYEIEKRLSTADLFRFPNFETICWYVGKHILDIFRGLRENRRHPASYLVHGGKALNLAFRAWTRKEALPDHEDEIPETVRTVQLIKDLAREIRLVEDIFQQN
compound,measurement,setting,value
"CC(C)C[C@@H]1NC(=O)[C@H](Cc2ccc(O)cc2)NC(=O)[C@H](Cc2ccc(O)cc2)NC(=O)CSC[C@@H](C(N)=O)NC(=O)[C@H]([C@@H](C)O)NC(=O)[C@H](CCCNC(=N)N)NC(=O)[C@H](Cc2ccccc2)NC(=O)[C@H](C(C)C)NC(=O)[C@H](CO)NC(=O)[C@@H]2CCCN2C(=O)[C@H](Cc2ccc(O)cc2)NC(=O)[C@@H]2CCCN2C(=O)[C@H](Cc2c[nH]cn2)NC(=O)[C@H]([C@@H](C)O)NC1=O [OC9] (HELM PEPTIDE1{[O=C(C[*:3])[*:2]].Y.Y.L.T.H.P.Y.P.S.V.F.R.T.C.[am]}$PEPTIDE1,PEPTIDE1,1:R3-15:R3$$$V2.0)","HDX-MS effect on deuterium uptake, KDM7B dual domain",KDM7B dual domain [1],only reduced deuterium uptake in peptide fragments within the PHD-finger
same,"HDX-MS effect on deuterium uptake, KDM7B PHD-finger",KDM7B PHD-finger,affected an even greater proportion
same,inhibition of KDM7B demethylase in orthogonal AS activity assay,KDM7B dual domain [2],Inhibition
same,Kd,KDM7A PHD; [4],33.4 nM
same,"ITC ΔH, KDM7A PHD",KDM7A PHD; 25 °C,-46.0 ± 1.3 kJ mol -1
same,"ITC N, KDM7A PHD",KDM7A PHD; stoichiometry,0.71 ± 0.01
same,"ITC KD, HisTrx-DIDO PHD",HisTrx-DIDO PHD,no measurable affinity
same,Kd,KDM7A Dual; [4],34.3 nM
same,"ITC ΔH, KDM7A Dual",KDM7A Dual; 25 °C,-56.9 ± 4.3 kJ mol -1
same,"ITC N, KDM7A Dual",KDM7A Dual; stoichiometry,0.92 ± 0.03
same,Kd,ING2 PHD,> 1000 nM
same,Kd,TAF3 PHD,> 1000 nM
same,"BLI KD, DIDO PHD",DIDO PHD,no measurable affinity
same,Kd,DIDO PHD,> 1000 nM
same,Kd,SPIN1 TTD,> 1000 nM
same,competition of OC9-Bt pull-down of KDM7B,full-length KDM7B,substantially reduced KDM7B recovery
same,proteins competed from OC9-Bt pull-down by titration of unlabelled OC9,[3],Only the relative abundance of KDM7B and KDM7C were significantly affected
same,koff,KDM7B PHD; 1:1 binding model,0.00143 ± 1e-05 s⁻¹
same,kon,KDM7B PHD; 1:1 binding model,360000 ± 2000 M⁻¹ s⁻¹
same,Kd,"KDM7B PHD; His-tagged protein on Ni-NTA biosensors, 1:1 binding model, read-out: BLI KD, KDM7B PHD",3.96 nM
same,"BLI Screening, KDM7B PHD",KDM7B PHD; qualitative assessment of binding by BLI,+
